Laboratory results published in patent publication US11571413B2, “Nicotinamide riboside treatments of domesticated meat animals” (Kansas State University Research Foundation, priority 2017, dated 2023).
Marks after values point to notes of the source that are not given here.

Experiments:
[1] = tested on: Fertilized Cobb 500 broiler eggs; assay: Cyclin D mRNA expression by real-time PCR (second Example VI); format: in vivo, chicken; settings: 250, 500 mM or 1 M NR; hatched chicks
Experimental: The methods of Burnett et al. (2016) were followed with minor modifications. Briefly, nucleic acids were extracted and purified from 200 mg of the left biceps femoris muscle using Trizol (Life Technologies), followed by subjecting the nucleic acids to PureLink™ RNA
Mini Kit (Life Technologies, Carlsbad, Calif.). Total RNA concentration and 260 nm/280 nm ratio were quantified and extractions yielding RNA with a ratio greater than 1.9 were used for real-time PCR analysis. Trace genomic DNA contamination and reverse transcription were conducted on 50 ng of total RNA using a High-Capacity cDNA Reverse Transcription Kit (Life Technologies). Gene specific primers were designed, efficiencies determined, and validated for qPCR (Table 7). Complementary DNA was amplified in duplicate for each sample using PerfeCTa SYBR Green FastMix (Quanta Biosciences, Gaithersburg, Md.) and the appropriate gene specific forward and reverse primers (20 pM) in an Eppendorff Mastercycler realplex2 S PCR System (Eppendorf North America, Hauppauge, N.Y.). Thermal cycling parameters were initial heating at 50° C. for 2 min, denaturing at 95° C. for 10 min, 50 cycles of 15 s at 95.0° C., annealing at 60.5° C. for 30 s, and extension for 20 s at 68.0° C. A final dissociation step was included at 95° C. for 15 s, 60° C. for 30 s, and 95° C. for 15 s. Expression was normalized to 18S ribosomal RNA expression (ΔCt, where Ct refers to the threshold cycle), and calibrated to control chick (0 mM) mRNA expression (ΔΔCt). Gene fold change expression levels were calculated as 2^−ΔΔCt as previously described by Livak and Schmittgen (2001).

[2] = tested on: growing pigs; assay: Longissimus lumborum NAD+ content (Example III); format: in vivo, pig
Experimental: (§1) Nine growing pigs were blocked by bodyweight (BW) and placed in metabolism crates. After a 3-day acclimation period, pigs within each BW block were randomly assigned to a treatment (n=3 pigs/treatment). Treatments comprised pigs supplemented 0, 15, or 30 mg/kg BW NR for 7 days. Pigs were allowed ad libitum access to a standard growing diet and water. Treatments were administered daily at 8 a.m. by mixing NR in 20 mL of Karo® dark syrup and orally drenching the pigs. On day 0 and 3 of the trial, muscle biopsies of the LL were taken for NAD+ analysis using standard procedures. At day 7, pigs were transported to the Kansas State University Meats Laboratory and euthanized by a captive penetrating bolt to the brain, followed by exsanguination. Following harvest procedures, 3 g of the LL were collected for NAD+ analysis. Twenty-four hours after harvest, the whole LL not sampled at harvest was removed from the carcass and aged 10 days. After aging, the LL was cut into 6 chops for retail color stability analysis, including 6-day surface oxy- and metmyoglobin percentage, 6-day objective and subjective color panel evaluation, and day 4 and 6 metmyoglobin reducing ability (MRA).

[3] = tested on: growing pigs; assay: Oral NR for 7 days in growing pigs: average daily gain and loin eye area (Example III); format: in vivo, pig
Experimental: as §1

[4] = tested on: growing pigs; assay: Longissimus lumborum chop retail color stability, 6-day display (Example III); format: in vivo, pig; settings: for Greater discoloration score of 0 mg/kg chops than NR chops: day 6 of display
Experimental: as §1

NC(=O)c1ccc[n+]([C@@H]2O[C@H](CO)[C@@H](O)[C@H]2O)c1 [Nicotinamide riboside, nicotinamide riboside]
Cyclin D1 and 2 mRNA expression [1]: no treatment effects
Cyclin D3 mRNA expression, control vs all NR treatments [1]: Control chicks had greater cyclin D3 expression
Greater cyclin D3 mRNA expression of control chicks than NR chicks (average) [1]: 38%
Day 3 NAD+ change, percent change ([2]; 15 mg/kg): 28.55^b,x Percent
Day 3 NAD+ change, total ([2]; 15 mg/kg): 2.10^b pMol/g tissue
Day 7 NAD+ change, percent change ([2]; 15 mg/kg): 35.29^b,x Percent
Day 7 NAD+ change, total ([2]; 15 mg/kg): 2.72^b pMol/g tissue
NAD+ ([2]; 15 mg/kg group, Day 0 (before supplementation)): 7.70 pMol/g tissue
NAD+ ([2]; 15 mg/kg, Day 7): 10.42 pMol/g tissue
NAD+ ([2]; 15 mg/kg, middle column group (Day 3, head not given)): 9.80 pMol/g tissue
Day 3 NAD+ change, percent change ([2]; 30 mg/kg): 6.43^a,b,y Percent
Day 3 NAD+ change, total ([2]; 30 mg/kg): 0.71^a,b,y pMol/g tissue
Day 7 NAD+ change, percent change ([2]; 30 mg/kg): 10.92^a,b,y Percent
Day 7 NAD+ change, total ([2]; 30 mg/kg): 0.93^a,b,y pMol/g tissue
NAD+ ([2]; 30 mg/kg group, Day 0 (before supplementation)): 8.60 pMol/g tissue
NAD+ ([2]; 30 mg/kg, Day 7): 9.53 pMol/g tissue
NAD+ ([2]; 30 mg/kg, middle column group (Day 3, head not given)): 9.31 pMol/g tissue
Loin eye area (LEA) vs 0 mg/kg ([3]; 15 mg/kg BW oral daily): did not differ
Better ADG compared to pigs in the other two treatments (numerical trend) ([3]; 30 mg/kg BW oral daily): 4.4%
Larger loin eyes than pigs fed 0 mg/kg NR ([3]; 30 mg/kg BW oral daily): 52%
Larger loin eyes than pigs fed 15 mg/kg NR ([3]; 30 mg/kg BW oral daily): 48%
Visual panel discoloration scores between treatments ([4]; 0, 15 and 30 mg/kg, days 1, 4 and 5 of display): did not differ
Less surface metmyoglobin accumulation than 0 mg/kg chops (tendency) ([4]; 15 mg/kg BW, 7 days, LL chops, entire 6-day display): 9%
Greater discoloration score of 0 mg/kg chops than NR chops ([4]; 15 mg/kg): 41%
Less discoloration than 0 mg/kg chops (tendency) ([4]; 15 mg/kg, entire 6-day study): 27%
More MRA than 0 mg/kg chops (tendency) ([4]; 15 mg/kg, over the entire study): 42%
Less surface metmyoglobin than 0 mg/kg chops ([4]; 30 mg/kg BW, 7 days, LL chops, entire 6-day display): 14%
Greater discoloration score of 0 mg/kg chops than NR chops ([4]; 30 mg/kg): 39%
Less surface discoloration than 0 mg/kg chops ([4]; 30 mg/kg, entire 6-day study): 30%
More metmyoglobin reducing ability (MRA) than 0 mg/kg chops ([4]; 30 mg/kg, over the entire study): 64%
Surface discoloration of 0 mg/kg chops vs 15 and 30 mg/kg chops ([4]; days 2 and 3 of display): tended to have more surface discoloration
